As a reminder, the Kd is the constant that tells how readily two partners part at equilibrium.

Here are results for 19 compounds from patent US8921546B2, “Imidazolothiazole compounds for the treatment of disease” (Ambit Biosciences Corporation, priority 2006, dated 2014).

Structures can show the parent of a compound that is named as a salt. Where two headings read alike, the source gives them in different places.

One experiment has as its target T1, FLT3 (Homo sapiens, UniProt P36888).
T1 construct: made in house
T1 sequence (P36888 27-993): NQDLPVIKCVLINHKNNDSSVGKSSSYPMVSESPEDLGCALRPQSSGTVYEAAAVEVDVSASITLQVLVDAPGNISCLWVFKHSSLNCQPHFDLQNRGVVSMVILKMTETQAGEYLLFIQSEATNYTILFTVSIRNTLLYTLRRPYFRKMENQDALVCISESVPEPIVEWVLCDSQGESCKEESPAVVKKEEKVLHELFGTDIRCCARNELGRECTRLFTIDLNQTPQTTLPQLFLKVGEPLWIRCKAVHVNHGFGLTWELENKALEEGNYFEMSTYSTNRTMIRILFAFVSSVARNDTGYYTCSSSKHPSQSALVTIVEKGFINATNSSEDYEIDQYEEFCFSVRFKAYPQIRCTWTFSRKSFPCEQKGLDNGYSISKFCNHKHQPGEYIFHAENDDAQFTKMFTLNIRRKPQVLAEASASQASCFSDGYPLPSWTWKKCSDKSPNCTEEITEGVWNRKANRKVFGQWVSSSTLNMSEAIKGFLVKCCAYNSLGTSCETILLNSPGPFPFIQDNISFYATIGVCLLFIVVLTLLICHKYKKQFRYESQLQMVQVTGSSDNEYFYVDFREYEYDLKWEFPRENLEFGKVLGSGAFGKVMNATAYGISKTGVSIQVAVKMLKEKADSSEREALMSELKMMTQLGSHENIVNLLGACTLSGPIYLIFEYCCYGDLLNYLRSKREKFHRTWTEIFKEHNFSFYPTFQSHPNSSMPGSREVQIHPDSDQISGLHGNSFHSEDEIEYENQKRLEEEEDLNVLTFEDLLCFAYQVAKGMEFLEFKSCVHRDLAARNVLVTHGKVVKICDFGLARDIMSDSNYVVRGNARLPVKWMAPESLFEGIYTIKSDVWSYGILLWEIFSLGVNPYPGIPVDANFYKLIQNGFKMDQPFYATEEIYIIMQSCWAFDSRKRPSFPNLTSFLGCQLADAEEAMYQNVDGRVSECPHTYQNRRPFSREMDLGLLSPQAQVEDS
The experiment can be described thus: Binding constant (Kd) measurement, phage-displayed kinase competition binding assay, FLT3. Here is the method:
(§1) Binding Constant (Kd) Measurements for Small-Molecule-Kinase Interactions
(§2) By testing across a large class of protein kinases, specificity of the kinase inhibitors provided herein is also determined. The components of the assays include various human kinases expressed as fusions to T7 bacteriophage particles and immobilized ligands that bind to the ATP site of the kinases. […] If the test compound binds the kinase, it competes with the immobilized ligand and prevents binding to the solid support. […] The results are read out by quantitating the amount of fusion protein bound to the solid support, which is accomplished by either traditional phage plaque assays or by quantitative PCR (qPCR) using the phage genome as a template.

For another experiment, the system named is MV4-11 cells. As to the kind of experiment: Cellular proliferation assay (MTS), MV4-11. Conditions: Homo sapiens. The format is cell-based. The source says:
Cellular Proliferation Assay
Cancer cell viability and proliferation can be evaluated using a tetrazolium salt reduction cell-based assay. In viable cells, this colorimetric assay can measure mitochondrial reduction of a tetrazolium component (MTS) into an […] formazan product.
This cell line was used to determine the ability of the compounds provided herein to inhibit Flt3 in intact cells. The RS4-11 cell line, which expresses the wild-type (WT) receptor, is also used as a control to verify the test compound's ability to inhibit the FLT3 receptor containing the ITD mutation.
MV4-11 cells were plated at 10,000 cells per well in DMEM medium with 0.5% serum. RS4-11 cells were plated at 20,000 cells per well in RPMI with 0.5% serum. […] An aliquot from each well of the compound plate was transferred to the plated cells and then incubated @ 37° C. in 5% CO2 (for 3 days for the MV4-11 cells, 2 days for the RS4-11 cells).
MTS tetrazolium compound (Owen's reagent) was thawed in a H2O bath. 20 μl of MTS tetrazolium was added to each well of optical plate and the cells were incubated @ 37° C. in 5% CO2 for 2 hours.

In the next experiment the target is T2, KIT (Homo sapiens, UniProt P10721).
T2 construct: made in house
As to the kind of experiment: Binding constant (Kd) measurement, phage-displayed kinase competition binding assay, KIT. As for the experimental part:
as §1, §2

Another experiment addresses T3, CSF1R (Homo sapiens, UniProt P07333).
T3 construct: made in house
As to the kind of experiment: Binding constant (Kd) measurement, phage-displayed kinase competition binding assay, CSF1R. As for the experimental part:
as §1, §2

The mark [1] stands for this setting: read-out: Binding Assay FLT3 Kd.
[2] abbreviates: MV4-11 cells, 72 hour incubation, MTS, read-out: Cellular Assay MV-proliferation IC50.
The mark [3] stands for this setting: MV4-11, 72 h, read-out: Cellular Assay MV-proliferation IC50 (nM).

T2 sequence (P10721 26-976): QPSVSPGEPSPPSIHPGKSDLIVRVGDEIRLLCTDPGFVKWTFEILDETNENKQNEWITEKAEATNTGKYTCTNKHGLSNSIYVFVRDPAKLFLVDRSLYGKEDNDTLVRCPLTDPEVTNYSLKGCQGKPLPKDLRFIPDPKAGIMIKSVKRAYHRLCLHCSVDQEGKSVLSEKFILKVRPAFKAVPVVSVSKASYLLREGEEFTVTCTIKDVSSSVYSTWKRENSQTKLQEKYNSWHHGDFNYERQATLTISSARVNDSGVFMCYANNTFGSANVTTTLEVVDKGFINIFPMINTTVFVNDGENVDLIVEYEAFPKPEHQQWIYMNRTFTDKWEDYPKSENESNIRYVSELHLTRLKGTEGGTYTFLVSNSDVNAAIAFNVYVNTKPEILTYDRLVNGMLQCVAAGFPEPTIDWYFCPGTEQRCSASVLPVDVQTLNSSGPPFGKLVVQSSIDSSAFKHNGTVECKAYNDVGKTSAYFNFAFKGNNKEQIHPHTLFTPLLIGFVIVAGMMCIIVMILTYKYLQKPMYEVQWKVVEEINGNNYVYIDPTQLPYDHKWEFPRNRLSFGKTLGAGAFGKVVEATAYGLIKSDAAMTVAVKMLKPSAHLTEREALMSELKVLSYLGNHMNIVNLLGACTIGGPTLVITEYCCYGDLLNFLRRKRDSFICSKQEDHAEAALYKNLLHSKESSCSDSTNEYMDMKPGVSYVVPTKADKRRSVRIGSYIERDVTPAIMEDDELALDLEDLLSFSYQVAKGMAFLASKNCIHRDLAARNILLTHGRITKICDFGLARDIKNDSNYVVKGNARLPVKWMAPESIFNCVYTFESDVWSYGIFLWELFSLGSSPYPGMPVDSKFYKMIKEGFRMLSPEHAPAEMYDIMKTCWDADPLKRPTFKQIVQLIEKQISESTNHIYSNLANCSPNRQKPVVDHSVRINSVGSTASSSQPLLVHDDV
T3 sequence (P07333 20-972): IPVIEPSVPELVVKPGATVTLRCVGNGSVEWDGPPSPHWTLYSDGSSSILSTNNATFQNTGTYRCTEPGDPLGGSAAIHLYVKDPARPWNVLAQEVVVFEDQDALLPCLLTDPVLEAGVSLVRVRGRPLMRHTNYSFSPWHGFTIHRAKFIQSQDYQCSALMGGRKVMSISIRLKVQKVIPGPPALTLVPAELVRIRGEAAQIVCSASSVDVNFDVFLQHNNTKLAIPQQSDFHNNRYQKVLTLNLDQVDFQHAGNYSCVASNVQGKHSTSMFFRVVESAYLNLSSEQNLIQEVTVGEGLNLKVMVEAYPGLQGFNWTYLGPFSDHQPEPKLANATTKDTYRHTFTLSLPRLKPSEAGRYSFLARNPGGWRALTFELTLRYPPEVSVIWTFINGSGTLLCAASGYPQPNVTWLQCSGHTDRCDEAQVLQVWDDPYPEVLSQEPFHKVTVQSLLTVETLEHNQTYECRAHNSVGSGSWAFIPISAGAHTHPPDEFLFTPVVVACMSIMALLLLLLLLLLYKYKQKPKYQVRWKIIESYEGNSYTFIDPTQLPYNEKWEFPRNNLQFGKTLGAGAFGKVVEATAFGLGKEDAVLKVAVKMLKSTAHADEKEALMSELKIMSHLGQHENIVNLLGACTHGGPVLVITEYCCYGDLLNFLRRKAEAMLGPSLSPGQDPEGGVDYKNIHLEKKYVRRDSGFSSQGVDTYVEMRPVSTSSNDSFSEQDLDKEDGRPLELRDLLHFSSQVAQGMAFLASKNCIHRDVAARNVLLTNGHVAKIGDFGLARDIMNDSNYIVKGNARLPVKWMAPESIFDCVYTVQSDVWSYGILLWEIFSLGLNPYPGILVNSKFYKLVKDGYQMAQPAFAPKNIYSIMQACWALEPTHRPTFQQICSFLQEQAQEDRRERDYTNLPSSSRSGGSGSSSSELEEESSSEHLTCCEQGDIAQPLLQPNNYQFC

Take `CC(C)(C)c1cc(NC(=O)Nc2ccc(-c3cn4c(n3)sc3ccccc34)cc2)no1` [Compound A1]: at FLT3 (setting [1]), the Kd is less than 10 nM. In the experiment on MV4-11 cells (setting [2]), the IC50 is less than 10 nM.
`CC(C)(C)c1cc(NC(=O)Nc2ccc(-c3cn4c(n3)sc3cc(F)ccc34)cc2)no1` [Compound A2, 1-(5-tert-butyl-isoxazol-3-yl)-3-[4-(7-fluoro-benzo[d]imidazo[2,1-b]thiazol-2-yl)-phenyl]-urea] came in with a dissociation constant (Kd) at FLT3 of 10 to 100 nM. The IC50 with MV4-11 cells (setting [2]) was less than 10 nM.
As for `Cc1ccc2c(c1)sc1nc(-c3ccc(NC(=O)Nc4cc(C(C)(C)C)on4)cc3)cn12` [Compound A3, 1-(5-tert-butyl-isoxazol-3-yl)-3-[4-(7-methyl-benzo[d]imidazo[2,1-b]thiazol-2-yl)-phenyl]-urea], the Kd at FLT3 is less than 10 nM. Moreover, in the experiment with MV4-11 cells (setting [2]), the IC50 was less than 10 nM.
`CC(C)(C)c1cc(NC(=O)Nc2ccc(-c3cn4c(n3)sc3cc(O)ccc34)cc2)no1` [Compound A4, 1-(5-tert-butyl-isoxazol-3-yl)-3-[4-(7-hydroxy-benzo[d]imidazo[2,1-b]thiazol-2-yl)-phenyl]-urea]: at FLT3 (setting [1]), the Kd was less than 10 nM. For the same compound, the IC50 in the experiment with MV4-11 cells (setting [2]) was less than 10 nM.
For the compound `COc1ccc2c(c1)sc1nc(-c3ccc(NC(=O)Nc4cc(C(C)(C)C)on4)cc3)cn12` [Compound A5, 1-(5-tert-butyl-isoxazol-3-yl)-3-[4-(7-methoxy-benzo[d]imidazo[2,1-b]thiazol-2-yl)-phenyl]-urea], the Kd on FLT3 is less than 10 nM. Besides, in the experiment with MV4-11 cells (setting [2]), the IC50 was less than 10 nM.
`CC(C)(C)c1cc(NC(=O)Nc2ccc(-c3cn4c(n3)sc3cc(N5CCOCC5)ccc34)cc2)no1` [Compound A6, 1-(5-tert-Butyl-isoxazol-3-yl)-3-[4-(7-morpholin-4-yl-benzo[d]imidazo[2,1-b]thiazol-2-yl)-phenyl]-urea] yielded a Kd at FLT3 of less than 10 nM. Further, the IC50 in the experiment with MV4-11 cells (setting [2]) is less than 10 nM.
Turning to `CN1CCN(c2ccc3c(c2)sc2nc(-c4ccc(NC(=O)Nc5cc(C(C)(C)C)on5)cc4)cn23)CC1` [Compound A7, 1-(5-tert-butyl-isoxazol-3-yl)-3-{4-[7-(4-methyl-piperazin-1-yl)-benzo[d]imidazo[2,1-b]thiazol-2-yl]-phenyl}-urea], on FLT3 (setting [1]), the Kd is less than 10 nM. Further, the IC50 in the experiment on MV4-11 cells (setting [2]) was less than 10 nM.
As to `CC(C)(C)c1cc(NC(=O)Nc2ccc(-c3cn4c(n3)sc3cc(OCCN5CCOCC5)ccc34)cc2)no1` [Compound B1, N-(5-tert-Butyl-isoxazol-3-yl)-N′-{4-[7-(2-morpholin-4-yl-ethoxy)imidazo[2,1-b][1,3]benzothiazol-2-yl]phenyl}urea], the IC50 with MV4-11 cells (setting [3]) was less than 10 nM.
Turning to `CCN(CC)CCOc1ccc2c(c1)sc1nc(-c3ccc(NC(=O)Nc4cc(C(C)(C)C)on4)cc3)cn12` [Compound B2, 1-(5-tert-Butyl-isoxazol-3-yl)-3-{4-[7-(2-diethylamino-ethoxy)-benzo[d]imidazo[2,1-b]thiazol-2-yl]-phenyl}-urea], the dissociation constant (Kd) at FLT3 and at KIT was less than 10 nM each time. Also, the IC50 in the experiment on MV4-11 cells (setting [2]) was less than 10 nM.
For the compound `CC(C)(C)c1cc(NC(=O)Nc2ccc(-c3cn4c(n3)sc3cc(OCCN5CCCCC5)ccc34)cc2)no1` [Compound B3, 1-(5-tert-Butyl-isoxazol-3-yl)-3-{4-[7-(2-piperidin-1-yl-ethoxy)-benzo[d]imidazo[2,1-b]thiazol-2-yl]-pheny}-urea hydrochloride], the Kd on FLT3 (setting [1]) and on KIT was less than 10 nM in each case. Moreover, the IC50 with MV4-11 cells (setting [2]) is less than 10 nM.
With `CN1CCN(CCOc2ccc3c(c2)sc2nc(-c4ccc(NC(=O)Nc5cc(C(C)(C)C)on5)cc4)cn23)CC1` [Compound B4, 1-(5-tert-Butyl-isoxazol-3-yl)-3-(4-{7-[2-(4-methyl-piperazin-1-yl)-ethoxy]-benzo[d]imidazo[2,1-b]thiazol-2-yl}-phenyl)-urea hydrochloride], the Kd at FLT3 (setting [1]) and at KIT was less than 10 nM each time. Besides, the IC50 with MV4-11 cells (setting [2]) was less than 10 nM.
For `CC(C)(C)c1cc(NC(=O)Nc2ccc(-c3cn4c(n3)sc3cc(OC(=O)[C@@H]5CCCN5)ccc34)cc2)no1` [Compound B6, (2S)-pyrrolidine-2-carboxylic acid 2-{4-[3-(5-tert-butyl-isoxazol-3-yl)-ureido]-phenyl}-benzo[d]imidazo[2,1-b]thiazol-7-yl ester], the Kd is less than 10 nM at FLT3 and 10 to 100 nM at KIT. The IC50 in the experiment on MV4-11 cells (setting [2]) is less than 10 nM.
With `CN1CCN(CCCOc2ccc3c(c2)sc2nc(-c4ccc(NC(=O)Nc5cc(C(C)(C)C)on5)cc4)cn23)CC1` [Compound B9, 1-(5-tert-Butyl-isoxazol-3-yl)-3-(4-{7-[3-(4-methyl-piperazin-1-yl)-propoxy]-benzo[d]imidazo[2,1-b]thiazol-2-yl}-phenyl)-urea], the results for the Kd at FLT3 (setting [1]) and on KIT were less than 10 nM and 10 to 100 nM, respectively. The IC50 in the experiment with MV4-11 cells (setting [2]) was less than 10 nM.
With `CCOC(=O)Cc1ccc2c(c1)sc1nc(-c3ccc(NC(=O)Nc4cc(C(C)(C)C)on4)cc3)cn12` [Compound C1, Ethyl 2-{2-[4-({[(5-tert-Butylisoxazol-3-yl)amino]carbonyl}amino)phenyl]imidazo[2,1-b][1,3]benzothiazol-7-yl}acetate], the dissociation constant Kd on FLT3 and at KIT was less than 10 nM each time. Also, the IC50 in the experiment with MV4-11 cells (setting [2]) is less than 10 nM.
In the case of `CC(C)(C)c1cc(NC(=O)Nc2ccc(-c3cn4c(n3)sc3cc(CC(=O)O)ccc34)cc2)no1` [Compound C2, 2-{2-[4-({[(5-tert-Butylisoxazol-3-yl)amino]carbonyl}amino)phenyl]imidazo[2,1-b][1,3]benzothiazol-7-yl}acetic acid], the Kd on FLT3 and at KIT was less than 10 nM in each case. Further, the IC50 in the experiment on MV4-11 cells (setting [2]) is less than 10 nM.
On to `CC(C)(C)c1cc(NC(=O)Nc2ccc(-c3cn4c(n3)sc3cc(CC(=O)NCCN5CCCC5)ccc34)cc2)no1` [Compound C15, 2-(2-{4-[3-(5-tert-butyl-isoxazol-3-yl)-ureido]-phenyl}-benzo[d]imidazo[2,1-b]thiazol-7-yl)-N-(2-pyrrolidin-1-yl-ethyl)-acetamide hydrochloride], for which the IC50 with MV4-11 cells (setting [2]) is less than 10 nM. Further, the Kd at CSF1R was 10 to 100 nM; at KIT it was less than 10 nM.
With `CCN(CC)CCNC(=O)Cc1ccc2c(c1)sc1nc(-c3ccc(NC(=O)Nc4cc(C(C)(C)C)on4)cc3)cn12` [Compound C16, 2-(2-{4-[3-(5-tert-butyl-isoxazol-3-yl)-ureido]-phenyl}-benzo[d]imidazo[2,1-b]thiazol-7-yl)-N-(2-diethylamino-ethyl)-acetamide hydrochloride], the IC50 with MV4-11 cells (setting [2]) is less than 10 nM. Moreover, the Kd on CSF1R is 10 to 100 nM; at KIT it was less than 10 nM.
Turning to `CCN1CCN(C(=O)Cc2ccc3c(c2)sc2nc(-c4ccc(NC(=O)Nc5cc(C(C)(C)C)on5)cc4)cn23)CC1` [Compound C17, 1-(5-tert-butyl-isoxazol-3-yl)-3-(4-{7-[2-(4-ethyl-piperazin-1-yl)-2-oxo-ethyl]benzo[d]imidazo[2,1-b]thiazol-2-yl}-phenyl)-urea hydrochloride], the IC50 in the experiment on MV4-11 cells (setting [3]) is less than 10 nM. The Kd on CSF1R is 10 to 100 nM; on KIT, less than 10 nM.
As for `CCN1CCN(CCCc2ccc3c(c2)sc2nc(-c4ccc(NC(=O)Nc5cc(C(C)(C)C)on5)cc4)cn23)CC1` [Compound D1, N-(5-tert-Butyl-isoxazol-3-yl)-N′-(4-{7-[3-(4-ethyl-piperazin-1-yl)propyl]imidazo[2,1-b][1,3]benzothiazol-2-yl}phenyl)urea hydrochloride], the IC50 in the experiment with MV4-11 cells (setting [2]) is less than 10 nM. The Kd on KIT is less than 10 nM.
